Results from US20070155713A1, “Nitrogen-containing heterocyclic compounds and use thereof” (priority 2003, published 2007).
Where a name gives a salt, the structure may show the parent alone.

Molecular target: T1, human CCR5 (Homo sapiens, UniProt P51681)
T1 construct: expressed in transfected cells; host or cells: CHO-dhfr(-)
Assay: Inhibition test on the binding of RANTES to CCR5 (RANTES-induced transient increase of Ca ion) in CCR5/CHO cells
Type: cell-based
Conditions: human CCR5 stably over-expressing CHO cell; recombinant human RANTES 10 nM; intracellular Ca2+ transient increase (Fura-2AM)
Description: (1) Isolation of Human CCR5 Gene Human placental cDNA was prepared using Marathon cDNA amplification kit (Clontech). PCR primers hCCR5Xbal-F1: Using the human placental cDNA as the template and using Ex Taq (Takara), PCR reaction (2 minutes at 95° C. {cube root}(30 seconds at 95° C., 45 seconds at 60° C., 1 minute at 72° C.)×35 times) was carried out. The thus amplified PCR product was subjected to a 1% agarose gel electrophoresis, purified using QIAquick Gel Extraction Kit (QUIAGEN) and then digested with a restriction enzyme XbaI. The digested fragments were ligated to an expression vector pEF-BOS-bsr using DNA Ligation Kit Ver. 2 (Takara) and transformed into Escherichia coli DH5α. By preparing the resulting plasmid pEF-BOS-bsr/hCCR5, its DNA sequence was verified. CHO-dhfr(−) was cultured using Ham's F-12 (containing fetal bovine serum (10%), penicillin (50 U/ml) and streptomycin ([…])). […] Transient increase in the intracellular Ca^2+ concentration induced by the human RANTES was measured using a Ca^2+ detector for 96 well use (Hamamatsu Photonics), and inhibition ratio (%) of the test compound was calculated by the following calculation formula. • Inhibition ratio=(Ec−Ea)/Ec×100 • Ec: measured value of Ca^2+ transient increase by RANTES • Ea: measured value of Ca^2+ transient increase by RANTES when a test compound was added.

T1 sequence (P51681 whole entry): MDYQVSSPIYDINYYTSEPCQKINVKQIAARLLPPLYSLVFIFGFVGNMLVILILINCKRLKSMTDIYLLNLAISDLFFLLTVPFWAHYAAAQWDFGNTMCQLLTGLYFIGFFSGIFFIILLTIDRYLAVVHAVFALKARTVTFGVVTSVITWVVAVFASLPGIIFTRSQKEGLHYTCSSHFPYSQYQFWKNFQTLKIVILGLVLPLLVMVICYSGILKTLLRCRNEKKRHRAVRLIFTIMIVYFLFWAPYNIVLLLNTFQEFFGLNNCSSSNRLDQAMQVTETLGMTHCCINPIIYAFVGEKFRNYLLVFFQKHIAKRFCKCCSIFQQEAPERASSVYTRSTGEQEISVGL

- IC50: 760 nM
Structure (SMILES): CCCCN1C(=O)[C@H](CC2CCCCC2)NC(=O)C12CCN(Cc1ccccc1)CC2C (stereo partly drawn) [Example 1, (3S)-9-benzyl-1-butyl-3-(cyclohexylmethyl)-7-methyl-1,4,9-triazaspiro[5.5]undecane-2,5-dione hydrochloride]
